Results: patent US5462861A, “Method for improving enzyme activities with noble gases” (American Air Liquide, Chicago Research Center, priority 1993, dated 1995)
Entries after “also recorded” stand apart in the source; their conditions may differ.

Assays:
Acetyl S-CoA synthetase = Acetyl S-CoA synthetase activity under gas (coupled sequence or isolated reaction); format: biochemical; settings: for Maximum observed enhancement / maximum observed inhibition: depending upon temperature
Procedure: (§1) Solution preparation: Optimized w/v solutions are prepared by diluting the enzyme (units/ml) and the substrate (μg/ml) in appropriate buffer (optimized pH and molarity for enzymes). The solutions are used for gas experiments at once to avoid loss of activity. Various enzyme and substrate concentrations and inhibitors may be employed. Physical parameters are varied as required.
(§2) Preparation of samples: Cuvets are filled with 2 ml of substrate solution by means of a gas-tight syringe. Gas-tight serum vials are filled with enzyme and solvent. Sufficient gas is consecutively bubbled in the cuvets and serum vials, with a 1-hr wait between injections to maximize equilibration of gas. All syringes and dead spaces are purged before filling with the appropriate gas. The amount of gas used has been measured sufficient to saturate the solution required.
(§3) Spectrophotometric time-drive, reaction rate, and kinetic analyses: cuvets and serum vials are saturated with gas 40 minutes before the run. A gas-filled syringe is used to retrieve 0.5 ml of enzyme solution to avoid air contact. The 0.5 ml syringe injections of enzyme are made simultaneously to effect a common starting time to for the samples. 7 gases (air, O2, N2, Ne, Ar, Kr, Xe) are run at various temperatures each (from 0° to 60° ). Changes in the rate or final equilibrium of the reaction versus ambient air are recorded. Comparison is also made with added oxygen, and with deoxygenation. Some samples are also prepared under pressure.
Maximum observed enhancement vs maximum observed inhibition (depending upon temperature):
In a coupled complex reaction sequence including hydrolytic enzymes: […]

[1] = system: Aspartate aminotransferase; assay: Aspartate aminotransferase activity under gas; format: biochemical; settings: for effect: minus = inhibition
Procedure: as §1, §2, §3

citrate synthetase = target: T1, citrate synthetase (Homo sapiens, UniProt O75390); assay: Citrate synthetase complex reaction under gas; format: biochemical
T1 sequence (O75390 28-466): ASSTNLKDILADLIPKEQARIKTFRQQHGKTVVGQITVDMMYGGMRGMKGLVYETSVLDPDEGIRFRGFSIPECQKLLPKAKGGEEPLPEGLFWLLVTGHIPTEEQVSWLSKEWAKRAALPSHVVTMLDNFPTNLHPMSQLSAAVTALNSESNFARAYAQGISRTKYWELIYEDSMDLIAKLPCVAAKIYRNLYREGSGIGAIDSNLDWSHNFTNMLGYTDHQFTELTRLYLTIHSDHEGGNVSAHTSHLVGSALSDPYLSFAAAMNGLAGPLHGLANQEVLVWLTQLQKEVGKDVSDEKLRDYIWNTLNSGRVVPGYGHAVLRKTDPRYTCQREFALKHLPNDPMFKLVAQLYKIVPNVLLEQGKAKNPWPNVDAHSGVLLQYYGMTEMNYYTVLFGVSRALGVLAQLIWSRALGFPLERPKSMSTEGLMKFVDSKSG
Procedure: as §1, §2, §3
(§4) In a complete experiment, an enzyme at optimal pH and buffering salt concentration is reacted with 5 substrate concentrations in solution with noble gas at 1 atm. […] Controls are also run after evacuation of solution by vacuum. The reaction is monitored colorimetrically in a scanning spectrophotometer in real time, and the signals are treated mathematically to obtain rate and yield differences. Sample numbers are constant and sufficient to ensure significance of results. All parameters are independently controlled and measured, and more complex experiments are occasionally carried out.

Tyrosinase [2] = assay: Tyrosinase-L-tyrosine reaction, solution saturated with gas; format: biochemical, Mushroom; settings: for effect: optimal reaction conditions, simple saturation of solution with gas, minus = inhibition; for temperature dependence of the effect on tyrosinase: various temperatures (15-35° C.); for effect on rate and final equilibrium of the tyrosinase-L-tyrosine reaction: various temperatures
Procedure: as §1, §2, §3
1. Solution preparation: 10% w/v solutions are prepared by diluting the enzyme (units/ml) and the substrate (μg/ml) in Sodium Phosphate buffer (pH 6.85, optimized pH for enzymes). The solutions are stored in refrigerator (0°-5° C.) and used for gas experiments within 2 or 3 days to avoid loss of activity.
6. Preparation of run samples: Acrylic cuvets are filled with 2 ml of substrate solution by means of a gas tight syringe. Gastight serum vials are filled with enzyme. 3×10 cc of gas are consecutively bubbled in the cuvets and serum vials, with a […] between injections. This represents a 10× displacement of dead volume while maximizing equilibration of gas. All syringes and dead spaces are purged before filling with the appropriate gas. After the third 10 cc injection, the cuvets and serum vials are left overnight under two 10 cc syringes filled with the appropriate gas in refrigerator at 0°-5° C.
8. Spectrophotometric runs: The cuvets and serum vials are filled with 10 cc of gas 40 min before the run. A gas-filled syringe is used to retrieve 0.5 ml of enzyme solution to avoid air contact. The 0.5 ml syringe injections of enzyme are made simultaneously to effect a common starting time t0 for the samples. Seven gases (air, O2, N2, Ne, Ar, Kr, Xe) are run at five temperatures each (15° C., 20° C., 25° C., 30° C., 35° C.). Changes in the rate or final equilibrium of the reaction versus ambient air are recorded.
The optimal conditions are [E]/[S] (100 μg/ml)/(100 μg/ml), the changes in absorbance being observed at 305 nm.
3×10 cc of gas are bubbled in the silicone-sealed cuvets and serum vials (T-3754, T-7755), with an interval of 20 min (at 0°-5°C.) between each gas injection.
a. The silicone-sealed cuvets are removed from the refrigerator 40 min before the experimental run, filled with 10 cc of gas and left at room temperature (26° C.) under two 10 cc syringes.
The 0.5 ml syringe injections of enzyme are made simultaneously to effect a common starting time t0 for the samples.
200 points, 18 s intervals 1 hr run

Tyrosinase [3] = assay: Gas mixture experiment, tyrosinase; format: biochemical, Mushroom; settings: inhibition vs. air control, 25° C.
Procedure: In addition to mixes of noble gases with nitrogen and oxygen, and of mixes of Kr and Xe, serial mixes of Ar and either Xe or Kr were tested. Results for tyrosinase expressed as inhibition vs. air control: Apr. 18, 1991: Gas mix prep: 120 cc serum vials were used to mix the gassed in. These vials were purged using vacuum while 1 atm of argon was maintained in the vial. The vials were purged for 20 seconds in this manner. The vials were under slight pressure which was released through a needle. This is considered 120 cc of Argon. The necessary volumes of Argon and the gas to be mixed with (Xe or Kr) were then introduced into the vials using a 30 cc syringe and needle. We gassed the enzyme using 1 vial of gas mix using 8×10 cc of gas out of the vial. We gassed the cuvette/substrate using a second vial of gas mix using 8×10 cc of gas out of the vial. Argon and Xenon were retrieved from the gas cylinders. […] We determined that we would be unable to retrieve 8×10 cc of gas mix from 1 vial. […] We prepared the Ar/Kr mixes as described above and did 2 replicates of the 10% and 50% mixes.

Beta-D-glucosidase = Beta-D-glucosidase activity under gas; format: biochemical; settings: plus = enhancement
Procedure: as §1, §2, §3, §4

[4] = coupled complex reaction sequence including hydrolytic enzymes

[Ne] [Ne, neon]
Maximum observed enhancement (Acetyl S-CoA synthetase; [4]): +2.3%
maximum observed inhibition (Acetyl S-CoA synthetase; [4]): -21.9%
effect [1]: -12%
effect on citrate synthetase complex reaction (citrate synthetase; 10° C.): +11
effect on citrate synthetase complex reaction (citrate synthetase; 25° C.): +9
effect on citrate synthetase complex reaction (citrate synthetase; 35° C.): -14
effect on tyrosinase-L-tyrosine reaction (Tyrosinase [2]; 15° C.): strong effects; also recorded: large inhibitory effect
effect on tyrosinase-L-tyrosine reaction (Tyrosinase [2]; 20° C.): effective inhibitors; also recorded: dramatically inhibit; also recorded: inhibiting effects
effect on tyrosinase-L-tyrosine reaction (Tyrosinase [2]; 25° C.): inhibitory effect
effect (Tyrosinase [2]; 25° C.): -46.7%
effect on tyrosinase-L-tyrosine reaction (Tyrosinase [2]; 30° C.): inhibitory effect
temperature dependence of the effect on tyrosinase (Tyrosinase [2]): activity transition occuring between 20 °C and 25 °C; also recorded: positively temperature dependent

[Ar] [Ar, argon]
Maximum observed enhancement (Acetyl S-CoA synthetase; [4]): +67.7%
maximum observed inhibition (Acetyl S-CoA synthetase; [4]): +34.6%
Maximum observed enhancement (Acetyl S-CoA synthetase; isolated reaction): +75.4%
maximum observed inhibition (Acetyl S-CoA synthetase; isolated reaction): -27.6%
effect on aspartate aminotransferase ([1]; FIG. 30): inhibition
effect [1]: -17%
% inhibited (Tyrosinase [3]; Mix = % Kr in Ar): -75%
% inhibited (Tyrosinase [3]; Mix = % Xe in AR): -75%
effect on citrate synthetase complex reaction (citrate synthetase; 10° C.): +25
effect on citrate synthetase complex reaction (citrate synthetase; 25° C.): -10
effect on citrate synthetase complex reaction (citrate synthetase; 35° C.): -15
effect on citrate synthase (citrate synthetase; FIG. 33): inhibition
effect (Beta-D-glucosidase): +16%
effect on tyrosinase-L-tyrosine reaction (Tyrosinase [2]; 15° C.): slightly inhibits equilibrium
effect on tyrosinase-L-tyrosine reaction (Tyrosinase [2]; 20° C.): effective inhibitors; also recorded: strong inhibition; also recorded: dramatically inhibit; also recorded: better inhibition by argon at 20 °C than neon; also recorded: inhibiting effects
effect on tyrosinase-L-tyrosine reaction (Tyrosinase [2]; 25° C.): inhibit at a lesser level than the other noble gases; also recorded: less inhibition at 25 °C than neon; also recorded: inhibitory effect
effect (Tyrosinase [2]; 25° C.): -60%
effect on tyrosinase-L-tyrosine reaction (Tyrosinase [2]; 30° C.): inhibitory effect
effect on rate and final equilibrium of the tyrosinase-L-tyrosine reaction (Tyrosinase [2]): inhibition; also recorded: surprisingly active at low temperatures

N#N [N2, nitrogen, reference compound]
effect on acetyl S-CoA synthetase compared with noble gases (Acetyl S-CoA synthetase): much lesser effect than noble gases except at superoptimal temperatures
Maximum observed enhancement (Acetyl S-CoA synthetase; [4]): +31.2%
maximum observed inhibition (Acetyl S-CoA synthetase; [4]): -39.5%
Maximum observed enhancement (Acetyl S-CoA synthetase; isolated reaction): +35.7%
maximum observed inhibition (Acetyl S-CoA synthetase; isolated reaction): -118.7%
effect on citrate synthetase complex reaction (citrate synthetase; 10° C.): -6
effect on citrate synthetase complex reaction (citrate synthetase; 25° C.): -25
effect on citrate synthetase complex reaction (citrate synthetase; 35° C.): -17
effect on tyrosinase-L-tyrosine reaction (Tyrosinase [2]; 20° C., listed as Nitrogen): inhibits the reaction fairly well
effect on tyrosinase-L-tyrosine reaction (Tyrosinase [2]; 20° C., listed as nitrogen): lesser inhibitory effect
effect on tyrosinase-L-tyrosine reaction (Tyrosinase [2]; 25° C.): inhibit at a lesser level than the other noble gases
effect on rate and final equilibrium of the tyrosinase-L-tyrosine reaction (Tyrosinase [2]): effective in inhibiting tyrosinase activity; also recorded: inhibition
temperature dependence of the effect on tyrosinase (Tyrosinase [2]): transitional maxima is observed after 20 °C
